Test results taken from patent US4130709A, “Pleuromutilin glycoside derivatives” (Eli Lilly and Company, priority 1977, dated 1978).

Test system: Staphylococcus aureus (H-Heatley) NRRL B-314
Assay: in vitro turbidometric assay (Autoturb Microbiological Assay System) against Staphylococcus aureus
Assay type: cell-based
Conditions: nutrient broth pH 7, approximately 4 hours at 37° C., A-40104 factor A as standard
Description: The compounds are conveniently tested against a typical gram-positive organism, Staphylococcus aureus, using a turbidometric assay on a semi-automated system (Autoturb Microbiological Assay System, Elanco) described by N. R. Kuzel and F. W. Kavanagh in J. Pharmaceut. Sci, 60 (5), 764 and 767 (1971). In testing these compounds, the following parameters were used: Staphylococcus aureus (H-Heatley) NRRL B-314 in a nutrient broth medium (pH 7), incubated for approximately 4 hours at 37° C. Test samples and A-40104 factor A, which is used as a standard, were dissolved in water. The standard was presented to the Autoturb carrousel at concentrations of 1.25, 2.50, 3.75, 5.00 and 6.25 mcg/ml. Test compounds were diluted to contain approximately 2.5 to 5.0 mcg of activity per ml, as presented to the carrousel. The units of activity of some of the typical compounds of this invention (R^2 =H in group tested) in this in vitro assay are summarized in Table I

SMILES	Units of Activity
CC[C@]1(C)C[C@@H](OC(=O)CS[C@@H]2OC[C@@H](OC(C)=O)[C@@H](OC(C)=O)[C@H]2OC(C)=O)[C@]2(C)[C@H](C)CC[C@]3(CCC(=O)[C@H]32)[C@@H](C)[C@@H]1O	480 to 500 µg/mg
C=C[C@]1(C)C[C@@H](OC(=O)CO[C@@H]2OC[C@@H](O)[C@H](O)[C@H]2O)[C@]2(C)[C@H](C)CC[C@]3(CCC(=O)[C@H]32)[C@@H](C)[C@@H]1O [A-40104 factor A, reference compound]	446 to 452 µg/mg
CC[C@]1(C)C[C@@H](OC(=O)CO[C@H]2O[C@H](CO)[C@@H](O)[C@H](O)[C@H]2O)[C@]2(C)[C@H](C)CC[C@]3(CCC(=O)[C@H]32)[C@@H](C)[C@@H]1O [Example 2, 14-deoxy-14-[(α-D-glucopyranosyl)oxyacetoxy]-19,20-dihydromutilin]	< 100 µg/mg
C=C[C@]1(C)C[C@@H](OC(=O)CS[C@@H]2OC[C@@H](OC(C)=O)[C@@H](OC(C)=O)[C@@H]2OC(C)=O)[C@]2(C)[C@H](C)CC[C@]3(CCC(=O)[C@H]32)[C@@H](C)[C@@H]1O [Example 20, 14-Deoxy-14-[(2,3,4-tri-O-acetyl-β-D-arabinopyranosyl)thioacetoxy]mutilin]	430 µg/mg
CC[C@]1(C)C[C@@H](OC(=O)CS[C@@H]2OC[C@@H](OC(C)=O)[C@@H](OC(C)=O)[C@@H]2OC(C)=O)[C@]2(C)[C@H](C)CC[C@]3(CCC(=O)[C@H]32)[C@@H](C)[C@@H]1O [Example 21, 14-Deoxy-14-[(2,3,4-tri-O-acetyl-β-D-arabinopyranosyl)thioacetoxy]-19,20-dihydromutilin]	380 µg/mg
C=C[C@]1(C)C[C@@H](OC(=O)CS[C@@H]2OC[C@@H](O)[C@@H](O)[C@@H]2O)[C@]2(C)[C@H](C)CC[C@]3(CCC(=O)[C@H]32)[C@@H](C)[C@@H]1O [Example 22, 14-Deoxy-14-[(β-D-arabinopyranosyl)thioacetoxyl]mutilin]	380 µg/mg
CC[C@]1(C)C[C@@H](OC(=O)CS[C@@H]2OC[C@@H](O)[C@@H](O)[C@@H]2O)[C@]2(C)[C@H](C)CC[C@]3(CCC(=O)[C@H]32)[C@@H](C)[C@@H]1O [Example 23, 14-deoxy-14-[(β-D-arabinopyranosyl)thioacetoxy]-19,20-dihydromutilin]	420 µg/mg
C=C[C@]1(C)C[C@@H](OC(=O)CS[C@H]2OC[C@@H](OC(C)=O)[C@@H](OC(C)=O)[C@H]2OC(C)=O)[C@]2(C)[C@H](C)CC[C@]3(CCC(=O)[C@H]32)[C@@H](C)[C@@H]1O [Example 36 α-anomer, 14-deoxy-14-[(2,3,4-tri-O-acetyl-α-D-ribopyranosyl)thioacetoxy]mutilin]	50 µg/mg
C=C[C@]1(C)C[C@@H](OC(=O)CS[C@H]2OC[C@@H](O)[C@@H](O)[C@H]2O)[C@]2(C)[C@H](C)CC[C@]3(CCC(=O)[C@H]32)[C@@H](C)[C@@H]1O [Example 37, 14-Deoxy-14-[(α-D-ribopyranosyl)thioacetoxy]-mutilin]	350 µg/mg
C=C[C@]1(C)C[C@@H](OC(=O)CS[C@@H]2OC[C@@H](O)[C@@H](O)[C@H]2O)[C@]2(C)[C@H](C)CC[C@]3(CCC(=O)[C@H]32)[C@@H](C)[C@@H]1O [Example 38, 14-Deoxy-14-[(β-D-ribopyranosyl)thioacetoxy]-mutilin]	1070 µg/mg
CC[C@]1(C)C[C@@H](OC(=O)CS[C@H]2OC[C@@H](O)[C@@H](O)[C@H]2O)[C@]2(C)[C@H](C)CC[C@]3(CCC(=O)[C@H]32)[C@@H](C)[C@@H]1O [Example 39, 14-Deoxy-14-[(α-D-ribopyranosyl)thioacetoxy]-19,20-dihydromutilin]	430 to 433 µg/mg
CC[C@]1(C)C[C@@H](OC(=O)CS[C@@H]2OC[C@@H](O)[C@@H](O)[C@H]2O)[C@]2(C)[C@H](C)CC[C@]3(CCC(=O)[C@H]32)[C@@H](C)[C@@H]1O [Example 40, 14-Deoxy-14-[(β-D-ribopyranosyl)thioacetoxy]-19,20-dihydromutilin]	1500 µg/mg
C=C[C@]1(C)C[C@@H](OC(=O)CS[C@H]2O[C@H](COC(C)=O)[C@@H](OC(C)=O)[C@H]2OC(C)=O)[C@]2(C)[C@H](C)CC[C@]3(CCC(=O)[C@H]32)[C@@H](C)[C@@H]1O [Example 41 α-anomer, 14-deoxy-14-[(2,3,5-tri-O-acetyl-α-D-ribofuranosyl)thioacetoxy]mutilin]	about 200 mcg/mg
C=C[C@]1(C)C[C@@H](OC(=O)CS[C@@H]2O[C@H](COC(C)=O)[C@@H](OC(C)=O)[C@H]2OC(C)=O)[C@]2(C)[C@H](C)CC[C@]3(CCC(=O)[C@H]32)[C@@H](C)[C@@H]1O [Example 41 β-anomer, 14-deoxy-14-[(2,3,5-tri-O-acetyl-β-D-ribofuranosyl)thioacetoxy]mutilin]	about 450 mcg/mg
C=C[C@]1(C)C[C@@H](OC(=O)CS[C@@H]2O[C@H](COC(C)=O)[C@@H](O[C@H]3O[C@H](COC(C)=O)[C@@H](OC(C)=O)[C@H](OC(C)=O)[C@H]3OC(C)=O)[C@H](OC(C)=O)[C@H]2OC(C)=O)[C@]2(C)[C@H](C)CC[C@]3(CCC(=O)[C@H]32)[C@@H](C)[C@@H]1O [Example 52, 14-Deoxy-14-[(4-O-(2,3,4,6-tetra-O-acetyl-α-D-glucopyranosyl)-2,3,6-tri-O-acetyl-β-D-glucopyranosyl)thioacetoxy]mutilin]	40 µg/mg
CC[C@]1(C)C[C@@H](OC(=O)CS[C@@H]2O[C@H](COC(C)=O)[C@@H](O[C@H]3O[C@H](COC(C)=O)[C@@H](OC(C)=O)[C@H](OC(C)=O)[C@H]3OC(C)=O)[C@H](OC(C)=O)[C@H]2OC(C)=O)[C@]2(C)[C@H](C)CC[C@]3(CCC(=O)[C@H]32)[C@@H](C)[C@@H]1O [Example 53]	28 µg/mg
